In general, IC50 refers to the concentration that inhibits the measured activity by half. One may read the viability, T/C as the ratio of treated to control.

“And” between values parts separate entries of the source, which are not always exact repeats. Identical values can stand only once. Where only a bound is given, the exact number is not on record here.

The results in this text go back to PubChem BioAssay AID1963985 (Molecular Pharmacology Branch, DTP, NCI, 2024).

This test relates to 252836-082-R-J2-PDC tumor spheroids, viability. Description: Anticancer human tumor 252836-082-R-J2-PDC patient-derived head and neck squamous cell carcinoma cell line growth inhibition [PI3K]. Conditions: spheroids with HUVEC and MSC; for viability, T/C: stronger effect = lower value. The method, boiled down: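 Combination activity was assessed by viability in multicellular tumor spheroids carrying HUVEC and MSC components. Agents were tested with PI3K inhibitors from a Cmax-based top dose (or 10 microM) downward in half-log increments.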
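Also: spheroids exposed to agents for seven days before readout.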
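For viability, T/C in this document: percent of vehicle DMSO control viability so 100% = untreated growth.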

For `CNC(=O)c1ccc(N2C(=S)N(c3ccc(C#N)c(C(F)(F)F)c3)C(=O)C2(C)C)cc1F` + Cc1nc(NC(=O)N2CCCC2C(N)=O)sc1-c1ccnc(C(C)(C)C(F)(F)F)c1, the half-inhibitory concentration (IC50) was above 10 µM (curve of first compound, second compound 0.0316 µM); above 10 µM (curve of first compound, second compound 0.1 µM); above 10 µM (curve of first compound, second compound 0.316 µM); above 10 µM (curve of first compound, second compound 1 µM); above 10 µM (curve of first compound, second compound 3.16 µM); below 0.0316 µM (curve of first compound, second compound 10 µM). Moreover, the viability, T/C by setting is: (second compound 0.0316 µM, first compound 0.0316 µM) 99.5%; (second compound 0.0316 µM, first compound 0.1 µM) 93.2%; (second compound 0.0316 µM, first compound 0.316 µM) 103%; (second compound 0.0316 µM, first compound 1 µM) 91%; (second compound 0.0316 µM, first compound 3.16 µM) 94.7%; (second compound 0.0316 µM, first compound 10 µM) 84.8%. For the same compound, the viability, T/C (second compound 0.1 µM, first compound 0.0316 µM) is 87.3%; the viability, T/C (second compound 0.1 µM, first compound 0.1 µM) was 75.7%; the viability, T/C (second compound 0.1 µM, first compound 0.316 µM) was 80.8%; the viability, T/C (second compound 0.1 µM, first compound 1 µM) is 86.5%; the viability, T/C (second compound 0.1 µM, first compound 3.16 µM) is 99.1%; the viability, T/C (second compound 0.1 µM, first compound 10 µM) was 82.1%. Besides, the viability, T/C by setting is: (second compound 0.316 µM, first compound 0.0316 µM) 68%; (second compound 0.316 µM, first compound 0.1 µM) 72%; (second compound 0.316 µM, first compound 0.316 µM) 82%; (second compound 0.316 µM, first compound 1 µM) 83.5%; (second compound 0.316 µM, first compound 3.16 µM) 74.1%; (second compound 0.316 µM, first compound 10 µM) 66%. Besides, the viability, T/C (second compound 1 µM, first compound 0.0316 µM) was 63%; the viability, T/C (second compound 1 µM, first compound 0.1 µM) is 61.8%; the viability, T/C (second compound 1 µM, first compound 0.316 µM) is 51.7%; the viability, T/C (second compound 1 µM, first compound 1 µM) is 68.3%; the viability, T/C (second compound 1 µM, first compound 3.16 µM) is 60.8%; the viability, T/C (second compound 1 µM, first compound 10 µM) was 54.5%. Moreover, the viability, T/C (second compound 3.16 µM, first compound 0.0316 µM) was 45.1%; the viability, T/C (second compound 3.16 µM, first compound 0.1 µM) was 55.9%; the viability, T/C (second compound 3.16 µM, first compound 0.316 µM) was 49.5%; the viability, T/C (second compound 3.16 µM, first compound 1 µM) was 49.2%; the viability, T/C (second compound 3.16 µM, first compound 3.16 µM) is 54.3%; the viability, T/C (second compound 3.16 µM, first compound 10 µM) is 46.1%. Further, the viability, T/C by setting is: (second compound 10 µM, first compound 0.0316 µM) 27.4%; (second compound 10 µM, first compound 0.1 µM) 36.2%; (second compound 10 µM, first compound 0.316 µM) 33.9%; (second compound 10 µM, first compound 1 µM) 35.4%; (second compound 10 µM, first compound 3.16 µM) 40.3%; (second compound 10 µM, first compound 10 µM) 35.8%.

For `C#Cc1c(F)ccc2cc(O)cc(-c3ncc4c(N5CC6CCC(C5)N6)nc(OCC56CCCN5CC(F)C6)nc4c3F)c12` (stereo unspecified), the viability, T/C runs as follows: (compound 0.0316 µM) 89.5% [middle of 4 runs]; (compound 1 µM) 87.9% [middle of 4 runs]; (compound 3.16 µM) 83.4% [middle of 4 runs]; (compound 10 µM) 67.8% [middle of 4 runs]. In addition, the concentration for half-maximal inhibition (IC50) (curve of compound) is above 10 µM.

Regarding `CC(C)NCC(C(=O)N1CCN(c2ncnc3c2C(C)CC3O)CC1)c1ccc(Cl)cc1` (stereo unspecified), the viability, T/C was 84.2% [middle of 4 runs] (compound 0.0316 µM); 96.8% [middle of 4 runs] (compound 0.1 µM); 87.8% (2×) and 61.1% and 70.6% (compound 0.316 µM); 45.1% [middle of 4 runs] (compound 1 µM); 31.7% [middle of 4 runs] (compound 3.16 µM); 19.7% [middle of 4 runs] (compound 10 µM). The half-inhibitory concentration (IC50) (curve of compound) is 850 nM [middle of 4 runs].

For `CC(Cn1ccc(-c2ccc(C#N)c(Cl)c2)n1)NC(=O)c1cc(C(C)O)[nH]n1` (stereo unspecified), the viability, T/C was 93.6% [middle of 4 runs] (compound 0.0316 µM); 88.4% [middle of 4 runs] (compound 0.1 µM); 98.8% [middle of 4 runs] (compound 0.316 µM); 97.2% [middle of 4 runs] (compound 1 µM); 92.5% [middle of 4 runs] (compound 3.16 µM); 91.9% [middle of 4 runs] (compound 10 µM). Moreover, the concentration for half-maximal inhibition (IC50) (curve of compound) is above 10 µM.
